According to patent US20180015066A1, “DRUG COMPLEXES COMPRISING ALPHA-FETOPROTEIN” (UNIVERSITY HEALTH NETWORK, priority 2015, published 2018):

Tested on: cell lines carrying AFP receptor
Test: Anti-cancer activities: in vitro antiproliferative assay (IC50)
Type: cell-based
Details: samples in PBS pH 7.4; concentration expressed as Pac or Pac-succinate; read-out: IC50 ± std. error (nM) for Pac or Pac-succinate

Molecule | IC50 [nM]
CC(=O)O[C@H]1C(=O)[C@@]2(C)[C@H]([C@H](OC(=O)c3ccccc3)[C@]3(O)C[C@H](OC(=O)[C@H](O)[C@@H](NC(=O)c4ccccc4)c4ccccc4)C(C)=C1C3(C)C)[C@]1(OC(C)=O)CO[C@@H]1C[C@@H]2O [Paclitaxel] | 3.4 ± 0.8
paclitaxel succinate [Paclitaxel-Succinate] | 26.5 ± 11.3
